Assays:
Type in all cases: cell-based, human
[1] = tested on: interaction between p53 and FOXO4; assay: in situ PLA (proximity ligation assay) of the physical binding between p53 and FOXO4 in H2O2-treated HaCaT cells; conditions: H2O2 200 μM, peptide 20 μM, 1 hour; for inhibition of the interaction between p53 and FOXO4 (PLA signals): in comparison with the control group
Description: After treating cells with the peptides of the present invention, the effects thereof on the physical binding between p53 and FOXO4 were evaluated through an in situ PLA (proximity ligation assay) method. HaCaT cells (human keratinocytes, CLS) were added at 4.5×10^4 cells per well, along with a DMEM containing 10% fetal bovine serum, to each well of a 24-well microplate and then cultured at 37° C. in a 5% CO2 incubator for 24 hours. H2O2 and the peptide solutions of Example 2 and H2O2 were added thereto so that the concentrations of H2O2 and each peptide in the medium were 200 μM and 20 μM respectively, followed by incubating for 1 hour under the same condition. As a control group, an untreated group (indicated by “control” in FIG. 1) and a group treated with H2O2 alone (indicated by “-” in FIG. 1) were used. The cells of each well were washed with PBS, fixed by treating with 2% formaldehyde for 15 minutes, and then treated with 0.1% TritonX-100 for 5 minutes to increase antibody permeability into the cells. Anti-p53 polyclonal antibody (Abcam, UK) and anti-FOXO4 polyclonal antibody (Santa Cruz, Calif., USA) were added thereto. After the PLA probe was added thereto using the in situ PLA kit (Sigma-Aldrich), hybridization, ligation, amplification and mounting steps were carried out according to the manufacturer's protocol. Each physical interaction between p53 and FOXO4 was quantified by measuring the luminescence signals (PLA signals) detected in each cell with a confocal laser microscope (Olympus fluoview FW1000; Olympus, Tokyo, Japan).

[2] = tested on: interaction between p53 and FOXO4; assay: in situ PLA of p53-FOXO4 binding with ERK inhibitor (PD98059) and SHP2 inhibitor (NSC878777) in HaCaT cells; conditions: H2O2 200 μM, 1 hour, FIG. 2
Description: After treating cells with the peptide of the present invention (the peptide of SEQ ID NO: 3), H2O2, a ERK inhibitor (PD98059), and a SHP2 inhibitor (NSC878777), the effects thereof on the physical binding between p53 and FOXO4 were evaluated through an in situ PLA (proximity ligation assay) method. HaCaT cells (human keratinocytes, CLS) were added at 4.5×10^4 cells per well, along with a DMEM containing 10% fetal bovine serum, to each well of a 24-well microplate and then cultured at 37° C. in a 5% CO2 incubator for 24 hours. The cells were treated with H2O2 (200 μM) and the peptide of SEQ ID NO: 3 (20 μM); or PD98059 (10 μM) or NSC878777 (10 μM) was additionally treated to the cells treated with H2O2 (200 μM) and the peptide of SEQ ID NO: 3 (20 μM), followed by incubating for 1 hour under the same condition. As a control group, an untreated group (indicated by “control” in FIG. 2) and a group treated with H2O2 alone were used. The cells of each well were washed with PBS, fixed by treating with 2% formaldehyde for 15 minutes, and then treated with 0.1% TritonX-100 for 5 minutes to increase antibody permeability into the cells. […] Each physical interaction between p53 and FOXO4 was quantified by measuring the luminescence signals (PLA signals) detected in each cell with a confocal laser microscope (Olympus fluoview FW1000; Olympus, Tokyo, Japan).

[3] = tested on: senescent ARPE-19 cells (retinal pigment epithelial cells); assay: apoptosis of H2O2-induced senescent cells, X-Gal (Senescence β-Galactosidase) staining, number of remaining senescent cells; conditions: ARPE-19, H2O2 25 μM 24 hours, then peptide 0.2 μM, 2 μM and 20 μM 24 hours; versus H2O2 alone ("-" group); FIGS. 3 and 4
Description: In order to evaluate the activity on the apoptosis of senescent cells by the treatment with the peptide of the present invention (the peptide of SEQ ID NO: 3) for 24 hours after inducing senescence by treating cells with H2O2, the X-Gal staining was carried out to measure the number of the remaining senescent cells. ARPE-19 cells (retinal pigment epithelial cells) were added at the density of 80% per well, along with a DMEM containing 10% fetal bovine serum, to each well of a 12-well microplate and then cultured at 37° C. in a 5% CO2 incubator for 24 hours. H2O2 was added thereto so that the concentration thereof in the medium was 25 μM, followed by incubating for 24 hours under the same condition. Thereafter, the cells in each well were washed with PBS and the peptide solution of Example 2 was added thereto so that the concentration of the peptide of SEQ ID NO: 3 was 0.2 μM, 2 μM, and 20 μM respectively, followed by incubating for 24 hours under the same condition. As a control group, an untreated group (indicated as “control” in FIGS. 3 and 4) and a group treated with H2O2 alone (indicated by “-” in FIGS. 3 and 4) were used. […] The bluish green color development detected in the senescence-induced cells was measured with a phase-contrast microscope (Olympus, Tokyo, Japan), and each number of senescent cells was quantified.

| Substance | extent of inhibition of the interaction between p53 and FOXO4 in comparison with the control group (PLA signals) ([1]; FIG. 1) | inhibition of the interaction between p53 and FOXO4 (PLA signals) ([1]; FIG. 1) | also measured |
| --- | --- | --- | --- |
| Leu-Val-Asp (LVD) [Pep 20] | two or more times | remarkably inhibited | inhibition of the interaction between p53 and FOXO4 (PLA signals) ([1]; FIG. 1, listed as SEQ ID NO: 20): particularly excellent activity |
| Leu-Trp-Asp (LWD) [Pep 19] | – | remarkably inhibited | inhibition of the interaction between p53 and FOXO4 (PLA signals) ([1]; FIG. 1, listed as SEQ ID NO: 19): particularly excellent activity |
| Leu-Thr-Asp (LTD) [Pep 18] | two or more times | remarkably inhibited | inhibition of the interaction between p53 and FOXO4 (PLA signals) ([1]; FIG. 1, listed as SEQ ID NO: 18): particularly excellent activity |
| Leu-Pro-Asp (LPD) [Pep 17] | two or more times | remarkably inhibited | inhibition of the interaction between p53 and FOXO4 (PLA signals) ([1]; FIG. 1, listed as SEQ ID NO: 17): particularly excellent activity |
| Leu-Lys-Asp (LKD) [Pep 7] | – | remarkably inhibited | inhibition of the interaction between p53 and FOXO4 (PLA signals) ([1]; FIG. 1, listed as SEQ ID NO: 7): particularly excellent activity |
| Leu-Cys-Asp (LCD) [Pep 13] | – | remarkably inhibited | inhibition of the interaction between p53 and FOXO4 (PLA signals) ([1]; FIG. 1, listed as SEQ ID NO: 13): particularly excellent activity |
| Leu-Phe-Asp (LFD) [Pep 11] | two or more times | remarkably inhibited | inhibition of the interaction between p53 and FOXO4 (PLA signals) ([1]; FIG. 1, listed as SEQ ID NO: 11): particularly excellent activity |
| Leu-Ala-Asp (LAD) [Pep 4] | – | remarkably inhibited | inhibition of the interaction between p53 and FOXO4 (PLA signals) ([1]; FIG. 1, listed as SEQ ID NO: 4): particularly excellent activity |
| Leu-Ile-Asp (LID) [Pep 15] | two or more times | remarkably inhibited | inhibition of the interaction between p53 and FOXO4 (PLA signals) ([1]; FIG. 1, listed as SEQ ID NO: 15): particularly excellent activity |
| Leu-Glu-Asp (LED) [Pep 1] | two or more times | remarkably inhibited | inhibition of the interaction between p53 and FOXO4 (PLA signals) ([1]; FIG. 1, listed as SEQ ID NO: 1): particularly excellent activity |
| Leu-His-Asp (LHD) [Pep 14] | two or more times | remarkably inhibited | inhibition of the interaction between p53 and FOXO4 (PLA signals) ([1]; FIG. 1, listed as SEQ ID NO: 14): particularly excellent activity |
| Leu-Gly-Asp (LGD) [Pep 3] | – | remarkably inhibited | inhibition of the interaction between p53 and FOXO4 (PLA signals) ([1]; FIG. 1, listed as SEQ ID NO: 3): particularly excellent activity; dependence of the peptide's inhibitory signal on ERK and SHP2 ([2]; peptide 20 μM plus PD98059 10 μM or NSC878777 10 μM): dependent on ERK and SHP2 activation; inhibition of the interaction between p53 and FOXO4 (PLA signals) ([2]; peptide 20 μM): significantly inhibited; induction of apoptosis of senescent cells (number of remaining senescent cells) [3]: significantly induced the apoptosis of senescent cells |
| Leu-Leu-Asp (LLD) [Pep 8] | – | remarkably inhibited | inhibition of the interaction between p53 and FOXO4 (PLA signals) ([1]; FIG. 1, listed as SEQ ID NO: 8): particularly excellent activity |
| Leu-Tyr-Asp (LYD) [Pep 9] | two or more times | remarkably inhibited | inhibition of the interaction between p53 and FOXO4 (PLA signals) ([1]; FIG. 1, listed as SEQ ID NO: 9): particularly excellent activity |
| Leu-Gln-Asp (LQD) [Pep 5] | – | remarkably inhibited | inhibition of the interaction between p53 and FOXO4 (PLA signals) ([1]; FIG. 1, listed as SEQ ID NO: 5): particularly excellent activity |

Source: US20230023726A1, “PHARMACEUTICAL COMPOSITION COMPRISING PEPTIDE THAT INHIBITS INTERACTION OF P53 AND FOXO4” (SUPADELIXIR INC., priority 2019, published 2023)
